As a reminder, the Ki is the equilibrium dissociation constant of an inhibitor or competing ligand from its target. Lower therefore signals tighter binding.

This passage reports Ki results from BindingDB's records for doi:10.1111/j.2042-7158.1986.tb04590.x (1986).

This experiment concerns the target Sigma non-opioid intracellular receptor 1 (Cavia porcellus, UniProt Q60492).

Chain of Sigma non-opioid intracellular receptor 1 (Q60492 whole entry): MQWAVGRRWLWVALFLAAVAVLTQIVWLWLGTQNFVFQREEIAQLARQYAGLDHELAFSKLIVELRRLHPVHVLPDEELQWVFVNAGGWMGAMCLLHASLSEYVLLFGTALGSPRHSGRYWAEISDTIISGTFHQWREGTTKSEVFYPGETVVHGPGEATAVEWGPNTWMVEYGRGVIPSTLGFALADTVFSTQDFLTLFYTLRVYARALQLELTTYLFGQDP

In turn, `CN(C)CCCN1c2ccccc2CCc2ccccc21` yielded a Ki of 520 nM.

As for `CN(C)CCC=C1c2ccccc2CCc2ccccc21`, the affinity corresponds to a Ki of 300 nM.

`CN(C)CCCN1c2ccccc2Sc2ccc(Cl)cc21` [[3-(2-Chloro-phenothiazin-10-yl)-propyl]-dimethyl-amine(Chlorpromazine)] displayed a Ki of 1470 nM.

For the compound `Clc1cccc(Cl)c1N=C1NCCN1` [2-(2,6-dichloroanilino)-2-imidazoline], the inhibition constant Ki is over 10000 nM. As to `CN(C)CCCN1c2ccccc2Sc2ccc(C(F)(F)F)cc21` [TRIFLUPROMAZINE], the affinity corresponds to a Ki of 605 nM.

Regarding `CNCCC=C1c2ccccc2CCc2ccccc21` [NORTRIPTYLINE], the affinity corresponds to a Ki of 2000 nM.
